From patent US20080004290A1, “Anti-Cancer Agents” (THE UNIVERSITY OF QUEENSLAND, priority 2003, published 2008)
Where two headings read alike, the source gives them in different places.

Experiments:
[1] = test system: NFF, neonatal foreskin fibroblasts; experiment: Cell survival assay (clonogenic survival, SRB), normal cells; type: cell-based, human; conditions: SRB
Procedure: (§1) The cytotoxicities of the compounds of the invention were determined by clonogenic survival of human cancer cells (MM96L, melanoma) and human normal cells (NFF, neonatal foreskin fibroblasts). Cells were incubated with the compounds at various concentrations of compound (0.01-10 μg/mL) for 24 hours, washed, and then grown for a further four days in the absence of hydroxamic acid before determining cell survival by cell count. The final readout involved staining with sulforhodamine B (SRB), a cost-effective method amenable to automation and high throughput analysis. At the technical level, “cell sensitivity” is often inferred from short term (1-2 day) observations such as apoptosis, which may not be a satisfactory model of clonogenic survival.
(§2) Cell Lines and Culture Medium. All cell lines used in this study have been described previously (Parsons et al., 1986; Todaro et al., 1980; Glenn et al., 2004). All cell lines were cultured in 10% heat-inactivated foetal calf serum (CSL, Australia) in RPMI 1640 medium supplemented with 100 U/mL penicillin, 100 μg/mL streptomycin, and 3 mM HEPES at 5% CO2, 99% humidity at 37° C. Primary human fibroblasts were obtained from neonatal foreskins and cultured in the above medium. Routine mycoplasma tests were performed using Hoechst stain^i and were always negative.
(§3) Cell Survival Assay. Cells were plated into 96-well microtitre plates at 5×10^3 cells/well, and allowed to adhere overnight. Test compounds were added to culture medium at the indicated concentrations, and plates incubated in the above conditions for 24 hours. Following this incubation period, compounds and media were removed, and replaced with fresh culture medium. Cells were then grown for a further 72 hours before assay using sulforhodamine B (SRB; Sigma, St. Louis, Mo.) as previously described. Briefly, the culture medium was removed from the 96-well microtitre plates and the plates washed twice with phosphate buffered saline (PBS), before the cells were fixed with methylated spirits for 15 minutes. The plates were then rinsed with tap water and the fixed cells stained with 50 μL/well of SRB solution (0.4% sulforhodamine B (w/v) in 1% (v/v) acetic acid) over a period of 1 hour. The SRB solution was then removed from the wells and the plates rapidly washed two times with 1% (v/v) acetic acid. Protein bound dye was then solubilised with the addition of 100 μL of 10 mM unbuffered Tris, and incubated for 15 min at 25° C. Plates were then read at 564 nm on a VERSA max tunable microplate reader (Molecular Devices, Sunnyvale, Calif.).

MM96L melanoma cells = experiment: Cell survival assay (clonogenic survival, SRB); type: cell-based, human; conditions: for Selectivity: IC50 (NFF)/IC50 (MM96L); for SI (Selectivity Index = IC50 (NFF)/IC50 (MM96L)): NFF vs MM96L
Procedure: as §1, §2, §3

[2] = Table 8, 24 hours with compound, further growth, read-out: IC50 (μM) NFF
[3] = Table 8, 24 hours with compound, further growth, SRB, read-out: IC50 (μM) MM96
[4] = NFF normal fibroblasts, 24 h with compound, further 72 h growth, read-out: IC50 (uM) NFF
[5] = MM96L melanoma, 24 h with compound, further 72 h growth, SRB, read-out: IC50 (uM) MM96L
[6] = Homo sapiens, MM96L, most preferred compounds, exemplary examples, read-out: potency of IC50 against the MM96 melanoma cells
[7] = Homo sapiens, Fibroblast, NFF normal fibroblasts, 24 h with compound, further 72 h growth, read-out: IC50 (uM) NFF
[8] = Homo sapiens, MM96L, MM96L melanoma, 24 h with compound, further 72 h growth, SRB, read-out: IC50 (uM) MM96L

| SMILES | IC50 [1, 2] | IC50 (MM96L melanoma cells; [3]) | Selectivity (MM96L melanoma cells; Table 8) | SI (Selectivity Index = IC50 (NFF)/IC50 (MM96L)) (MM96L melanoma cells) | IC50 [1, 7] | IC50 (MM96L melanoma cells; [8]) | other results |
| --- | --- | --- | --- | --- | --- | --- | --- |
| CN(C)c1ccc(NC(=O)c2ccc(CNC(=O)[C@H](CSCCCC(=O)NO)NC(=O)c3ccc(N(C)C)cc3)cc2)cc1 [Example 109] | 2.42 µM | 0.54 µM | 4.5 |  |  |  |  |
| CN(C)c1ccc(C(=O)N[C@@H](CSCCCC(=O)NO)C(=O)NCc2ccc(C(=O)NCCc3ccc(O)cc3)cc2)cc1 [Example 110] | 16.1 µM | 2.98 µM | 5.4 |  |  |  |  |
| CN(C)c1ccc(C(=O)N[C@@H](CSCCCC(=O)NO)C(=O)NCc2ccc(C(=O)Nc3ccc(-c4ccccc4)cc3)cc2)cc1 [Example 111] | 1.11 µM | 0.51 µM | 2.2 |  |  |  |  |
| CN(C)c1ccc(C(=O)NC(CSCCCC(=O)NO)C(=O)NCc2ccc(C(=O)NC(c3ccccc3)C(O)c3ccccc3)cc2)cc1 (stereo not drawn) [Example 112] | 14.3 µM | 2.87 µM | 5.0 |  |  |  |  |
| CN(C)c1ccc(C(=O)N[C@@H](CSCCCC(=O)NO)C(=O)NCc2ccc(C(=O)NCc3nc4ccccc4[nH]3)cc2)cc1 [Example 113] | 15.8 µM | 3.96 µM | 4.0 |  |  |  |  |
| CN(C)c1ccc(C(=O)N[C@@H](CSCCCC(=O)NO)C(=O)NCc2ccc(C(=O)Nc3ccc4cn[nH]c4c3)cc2)cc1 [Example 114] | 12.2 µM | 1.5 µM | 8.1 |  |  |  |  |
| CN(C)c1ccc(C(=O)N[C@@H](CSCCCC(=O)NO)C(=O)NCc2ccc(C(=O)Nc3cccc4cccnc34)cc2)cc1 [Example 115] | 1.35 µM | 0.56 µM | 2.4 |  |  |  |  |
| CN(C)c1ccc(C(=O)N[C@@H](CSCCCC(=O)NO)C(=O)NCc2ccc(C(=O)Nc3ccc4ncccc4c3)cc2)cc1 [Example 116] | 5.57 µM | 2.23 µM | 2.5 |  |  |  |  |
| CN(C)c1ccc(C(=O)N[C@@H](CSCCCC(=O)NO)C(=O)NCc2ccc(C(=O)NC3CCCC3)cc2)cc1 [Example 117] | 5.27 µM | 1.19 µM | 4.4 |  |  |  |  |
| CN(C)c1ccc(C(=O)N[C@@H](CSCCCC(=O)NO)C(=O)NCc2ccc(C(=O)Nc3cccc4c3CCCC4)cc2)cc1 [Example 118] | 3.78 µM | 1.17 µM | 3.2 |  |  |  |  |
| CN(C)c1ccc(C(=O)N[C@@H](CSCCCC(=O)NO)C(=O)NCc2ccc(C(=O)Nc3ccccc3Cc3ccccc3)cc2)cc1 [Example 120] | 2.32 µM | 1.02 µM | 2.4 |  |  |  |  |
| CN(C)c1ccc(C(=O)N[C@@H](CSCCCC(=O)NO)C(=O)NCc2ccc(C(=O)Nc3ccccc3)cc2)cc1 [Example 121] | 11.6 µM | 1.41 µM | 8.2 |  |  |  |  |
| CN(C)c1ccc(C(=O)N[C@@H](CCCCCC(=O)NO)C(=O)NCc2ccccc2)cc1 [Example 122] |  |  |  | 7.8 |  |  | IC50 [1, 4]: 12 ± 2 µM; IC50 (MM96L melanoma cells; [5]): 1.6 ± 0.3 µM |
| CN(C)c1ccc(C(=O)N[C@@H](CCCCCC(=O)NO)C(=O)NCc2ccccc2)cc1 [Example 123] |  |  |  | 6.0 |  |  | IC50 [1, 4]: 1 ± 0.1 µM; IC50 (MM96L melanoma cells; [6]): ≤ 0.5 µM; IC50 (MM96L melanoma cells; [5]): 0.16 ± 0.08 µM |
| CN(C)c1ccc(C(=O)N[C@@H](CCCCCC(=O)NO)C(=O)NCc2ccccn2)cc1 [Example 127] |  |  |  | 9.1 | 33 ± 5 µM | 3.6 ± 0.4 µM |  |
| CN(C)c1ccc(C(=O)N[C@@H](CCCCCC(=O)NO)C(=O)NC2(Cc3ccccc3)CCCC2)cc1 [Example 128] |  |  |  | 3.5 | 3 ± 0.3 µM | 0.9 ± 0.2 µM |  |
| O=C(CCCCC[C@H](NC(=O)c1cc2ccccc2[nH]1)C(=O)NC1(Cc2ccccc2)CCCC1)NO [Example 129] |  |  |  | 1.7 | 1.6 ± 0.2 µM | 0.9 ± 0.2 µM |  |
| O=C(CCCCC[C@H](NC(=O)c1cc2ccccc2[nH]1)C(=O)NCc1ccccc1)NO [Example 130] |  |  |  | 5.0 |  |  | IC50 [1, 4]: 1.26 µM; IC50 (MM96L melanoma cells; [6]): ≤ 0.5 µM; IC50 (MM96L melanoma cells; [5]): 0.252 µM |

| SMILES | IC50 [1, 2] | IC50 (MM96L melanoma cells; [3]) | Selectivity (MM96L melanoma cells; Table 8) | SI (Selectivity Index = IC50 (NFF)/IC50 (MM96L)) (MM96L melanoma cells) | IC50 [1, 7] | IC50 (MM96L melanoma cells; [8]) | other results |
| --- | --- | --- | --- | --- | --- | --- | --- |
| O=C(CCCCC[C@H](NC(=O)c1cc2ccccc2[nH]1)C(=O)NCc1ccccc1)NO [Example 131] |  |  |  | 7.1 |  |  | IC50 [1, 4]: 0.572 µM; IC50 (MM96L melanoma cells; [5]): 0.08 µM |
| O=C(CCCCC[C@H](NC(=O)c1ccc(Br)cc1)C(=O)NCc1ccccc1)NO [Example 136] |  |  |  | 4.2 | 5.86 µM | 1.99 µM |  |
| O=C(/C=C/c1ccccc1)N[C@@H](CCCCCC(=O)NO)C(=O)NCc1ccccc1 [Example 137] |  |  |  | 8.7 |  |  | IC50 [1, 4]: 4.01 µM; IC50 (MM96L melanoma cells; [6]): ≤ 0.5 µM; IC50 (MM96L melanoma cells; [5]): 0.46 µM |
| O=C(/C=C/c1ccccc1)N[C@@H](CCCCCC(=O)NO)C(=O)NCc1ccccc1 [Example 138] |  |  |  | 4.5 |  |  | IC50 [1, 4]: 1.15 µM; IC50 (MM96L melanoma cells; [5]): 0.252 µM |
| O=C(CCCCC[C@H](NC(=O)C12CC3CC(CC(C3)C1)C2)C(=O)NCc1ccccc1)NO [Example 139] |  |  |  | 1.8 |  |  | IC50 [1, 4]: 7.13 µM; IC50 (MM96L melanoma cells; [5]): 3.95 µM |
| O=C(CCCCC[C@H](NC(=O)Cc1ccc(-c2ccccc2)cc1)C(=O)NCc1ccccc1)NO [Example 140] |  |  |  | 2.2 | 5.13 µM | 2.36 µM |  |
| O=C(CCCCC[C@H](NC(=O)c1cccs1)C(=O)NCc1ccccc1)NO [Example 141] |  |  |  | 5.8 | 5.2 µM | 0.892 µM |  |
| O=C(CCCCC[C@H](NC(=O)OCC1c2ccccc2-c2ccccc21)C(=O)NCc1ccccc1)NO [Example 142] |  |  |  | 1.7 | 5.37 µM | 3.2 µM |  |
| O=C(CCCCC[C@H](NC(=O)c1ccc(C(F)(F)F)cc1)C(=O)Nc1cccc2cccnc12)NO [Example 147] |  |  |  | 2.7 | 0.696 µM | 0.258 µM |  |
| CN(C)c1ccc(NC(=O)[C@H](CCCCCC(=O)NO)NC(=O)/C=C/c2ccccc2)cc1 [Example 150] |  |  |  | 1.5 | 0.24 µM | 0.165 µM |  |
| CN(C)c1ccc(NC(=O)[C@H](CCCCCC(=O)NO)NC(=O)OCc2ccccc2)cc1 [Example 151] |  |  |  | 1.1 | 0.65 µM | 0.61 µM |  |
| CN(C)c1ccc(NC(=O)[C@H](CCCCCC(=O)NO)NC(=O)c2ccc(C(F)(F)F)cc2)cc1 [Example 152] |  |  |  | 1.8 | 0.404 µM | 0.222 µM |  |
| O=C(/C=C/c1ccccc1)N[C@@H](CCCCCC(=O)NO)C(=O)NCc1ccccc1 [Example 153] |  |  |  | 1.4 |  |  | IC50 [1, 4]: 0.99 µM; IC50 (MM96L melanoma cells; [5]): 0.731 µM |
| O=C(CCCCC[C@H](NC(=O)OCc1ccccc1)C(=O)NCc1ccccc1)NO [Example 154] |  |  |  | 1 | 1.52 µM | 1.52 µM |  |
| O=C(CCCCC[C@H](NC(=O)c1ccc(C(F)(F)F)cc1)C(=O)NCc1ccccc1)NO [Example 155] |  |  |  | 2.4 | 1.61 µM | 0.665 µM |  |
| O=C(CCCCCC(NC(=O)OCc1ccccc1)C(=O)NC1CCCc2ccccc21)NO (stereo not drawn) [Example 156] |  |  |  | 1 |  |  | IC50 [1, 4]: 1.71 µM; IC50 (MM96L melanoma cells; [5]): 1.71 µM |
| O=C(CCCCC[C@H](NC(=O)c1ccc(Br)cc1)C(=O)NCc1ccccn1)NO [Example 157] |  |  |  | 1.8 | 2.09 µM | 1.15 µM |  |
